This is an account of results in patent US5175172A, “Method of alleviating AIDS symptoms and compositions therefor” (priority 1988, dated 1992).

Data set [1] relates to T4. The procedure: Seven Month Follow-Up of Tacrine (THA) vs Zidovudine (AZT) in 72 HIV Infected Patients
Comparison of serological and clinical status of HIV infected patients after THA versus AZT treatment in an open study.
[…] (61 males, 11 females) with HIV infection ([…], 10 stages II and III), received either AZT (46 patients 600-1200 mg./day) or THA (26 patients 150-250 mg/day). In cases of intolerance or inefficacy, treatment was discontinued and patients were treated by the other drug.

The test system of data set [2] is Agp 24. Briefly: Seven month follow-up of THA vs AZT in HIV infected patients (open study): Agp 24. The data set is classed as in vivo. The source says:
Expressed in mean variation (%) in comparison with Do values.

Data set [3] is described as follows: Hepatotoxicity on administration of Tacrine (prior reports and applicants' studies). The data set is classed as in vivo. Conditions: more recent studies by Applicants.

SMILES strings stand for the structures. Like-named read-outs stand apart in the source and are kept apart here.

On to `Nc1c2c(nc3ccccc13)CCCC2` [Tacrine, 9-Amino-1,2,3,4-tetrahydroacridine], for which the “T4 /mm^3, mean variation (%) in comparison with D0” value in data set [1] (D1mth) is recorded as “+20.5%”; in data set [1] (D2mth), “+31.7%”; in data set [1] (D3mth), “+55.2%”; in data set [1] (D4mth) it was “+74.8%”; in data set [1] (D5mth), “+91.9%”; in data set [1] (D6mth) it was “+52%”. The “T4 /mm^3, mean variation (%) in comparison with D0” value in data set [1] (D7mth) is listed as “+68.3%”. Moreover, the “Agp 24, mean variation (%) in comparison with D0” value is reported as -39.4% in data set [2] (D1mth); -28.3% in data set [2] (D2mth); -26.2% in data set [2] (D3mth); -21.5% in data set [2] (D4mth); -18.7% in data set [2] (D5mth); -39.5% in data set [2] (D6mth). Besides, the “Agp 24, mean variation (%) in comparison with D0” value in data set [2] (D7mth) is recorded as -25%. Moreover, the “Hepatotoxicity with purified sources of Tacrine” value in data set [3] is listed as “hepatotoxicity can be avoided by utilizing purified sources of Tacrine”.
